This note sets out measurements from patent US9546158B2, “2,5-substituted pyrimidines” (Grünenthal GmbH, priority 2014, dated 2017).

Series [1] addresses T1, human PDE4B1 (Homo sapiens, UniProt Q07343).
T1 construct: host or cells: Sf9 cells
Description: cAMP HTRF assay to determine the activity of hPDE4B1. It counts as biochemical. To be noted: test substrate concentration of 1 μM, read-out: Inhibition of PDE4B, Inhibition in %. The procedure:
cAMP HTRF® Assay to Determine the Activity of hPDE4B1
The inhibiting effect of the compounds on the enzyme activity of human PDE4B1 was measured by the quantification of 5′-adenosine monophosphate (5′-AMP), which is formed from 3′,5′-cyclic adenosine monophosphate (cAMP). Human recombinant enzyme, expressed in Sf9 cells, and the HTRF (homogeneous time-resolved fluorescence) detection method were used in the assay.
The test compound or water (control) was mixed with the human recombinant PDE4B1 enzyme (4.8 U) in a buffer consisting of 44.4 mM tris-HCl, 5.28 mM MgCl2, 2.64 mM DTT and 0.044% Tween 20 (pH 7.8). After adding the cAMP enzyme substrate (final concentration 40 nM), the mixture was incubated for 30 minutes at room temperature. Then a fluorescence acceptor (Dye2 marked with cAMP), a fluorescence donor (anti-cAMP antibody marked with a europium cryptate) and the non-specific phosphodiesterase inhibitor IBMX (3-isobutyl-1-methylxanthine; final concentration 1 mM) were added. After 60 minutes the fluorescence transfer, which correlates with the amount of remaining cAMP, was measured with a microplate reader (Rubystar, BMG) at λex=337 nm, λem=620 nm and λem=665 nm. The enzyme activity was calculated from the quotient formed from the measured signal at 665 nm and that at 620 nm. The result was expressed as the percentage inhibition of enzyme activity of the control (without PDE4 inhibitor). The enzyme was omitted for measurement of the basal control. IC50 values (IC50=concentration causing a half-maximal inhibition of control specific activity) were derived from dose response measurements with eight different concentrations (n=2; N=1-3).
Literature: N. Saldou et al., Comparison of recombinant human PDE4 isoforms: interaction with substrate and inhibitors, Cell. Signal. Vol. 10, No. 6, 427-440, 1998

Series [2] addresses T1, human PDE4B1. Description: TR-FRET assay using the LANCE Ultra cAMP kit to determine the activity of hPDE4B1. It counts as biochemical. To be noted: test substrate concentration of 10 μM, read-out: Inhibition of PDE4B, Inhibition in %. From the text:
TR-FRET Assay Using the LANCE® Ultra cAMP Kit to Determine the Activity of hPDE4B1
The effects of the compounds on the activity of the human PDE4B1 was quantified by measuring the production of 5′AMP from cAMP using a human recombinant enzyme expressed in Sf9 cells and the LANCE® Ultra cAMP kit, a TR-FRET detection method from PerkinElmer. The human PDE4B1 enzyme was purchased from SignalChem Lifesciences (Catalog #P92-31BG, Lot #H296-2).
The test compound, reference compound or water (control) was mixed with the enzyme (0.96 U) in a reaction buffer containing 50 mM Tris-HCl, 50 mM MgCl2 and 5 mM DTT (pH 8.5). Thereafter, the reaction was initiated by addition of 500 nM cAMP (substrate) and the mixture was incubated for 30 minutes at room temperature. For control basal measurements, the enzyme was omitted from the reaction mixture. After 30 minutes, the reaction was stopped and diluted by a factor of 100 with the reaction buffer supplemented with 500 μM IBMX. The fluorescence donor (europium chelate-labeled cAMP) and the fluorescence acceptor (anti-cAMP antibody labeled with the ULight™ dye) were then added together with 500 μM IBMX to a 10 μl aliquot. After 60 minutes, the fluorescence transfer corresponding to the amount of residual cAMP was measured at λex=337 nm, λem=620 nm and λem=665 nm using a microplate reader (PHERAstar, BMG). The enzyme activity was determined by dividing the signal measured at 665 nm by that measured at 620 nm (ratio) multiplied by 10000. The results were expressed as percent inhibition of the control enzyme activity. IC50 values (IC50=concentration causing a half-maximal inhibition of control specific activity) were derived from dose response measurements with ten different concentrations (n=3; N=1-3).

T1 sequence (Q07343 whole entry): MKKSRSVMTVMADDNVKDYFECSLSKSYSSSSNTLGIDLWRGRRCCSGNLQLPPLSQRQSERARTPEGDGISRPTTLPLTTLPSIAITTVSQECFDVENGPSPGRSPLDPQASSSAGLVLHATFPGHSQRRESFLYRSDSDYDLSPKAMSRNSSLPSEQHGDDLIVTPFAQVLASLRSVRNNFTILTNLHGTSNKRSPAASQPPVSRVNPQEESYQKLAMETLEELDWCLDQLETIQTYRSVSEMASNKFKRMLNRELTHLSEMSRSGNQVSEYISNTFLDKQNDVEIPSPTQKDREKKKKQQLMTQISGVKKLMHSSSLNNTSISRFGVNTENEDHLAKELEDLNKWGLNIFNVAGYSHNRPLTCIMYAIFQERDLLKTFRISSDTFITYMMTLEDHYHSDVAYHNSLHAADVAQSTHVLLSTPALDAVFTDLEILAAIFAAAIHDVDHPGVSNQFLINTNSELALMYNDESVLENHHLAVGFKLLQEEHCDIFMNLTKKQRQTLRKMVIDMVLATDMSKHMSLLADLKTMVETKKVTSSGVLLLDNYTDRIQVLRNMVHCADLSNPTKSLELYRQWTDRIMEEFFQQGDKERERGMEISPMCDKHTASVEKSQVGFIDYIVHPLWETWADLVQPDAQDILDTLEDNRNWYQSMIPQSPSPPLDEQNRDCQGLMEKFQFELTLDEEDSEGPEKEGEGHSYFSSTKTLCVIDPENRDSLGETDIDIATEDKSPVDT

The term inhibition denotes the change of the read-out against control, counted positive when it falls. By melting point is commonly meant the temperature of the solid-liquid transition. The compound `O=C1CN(C(=O)c2ccc3c(C4CC4)nn(-c4ncc(-c5ccccc5F)cn4)c3c2)CCN1` [Compound No. 16, 4-(3-Cyclopropyl-1-(5-(2-fluorophenyl)pyrimidin-2-yl)-1H-indazole-6-carbonyl)piperazin-2-one] returned a melting point of 252 to 255 °C. Moreover, the inhibition at 1 µM on human PDE4B1 [1] turned out to be 99%.
Compound `CN1CCN(C(=O)c2ccc3c(C4CC4)nn(-c4ncc(-c5ccccc5F)cn4)c3c2)CC1=O` [Compound No. 17, 4-(3-Cyclopropyl-1-(5-(2-fluorophenyl)pyrimidin-2-yl)-1H-indazole-6-carbonyl)-1-methylpiperazin-2-one] displayed a melting point of 217 to 221 °C. For the same compound, the inhibition at 1 µM on human PDE4B1 [1] was found to be 95%.
`O=C(c1cc2c(cn1)c(C1CC1)nn2-c1ncc(-c2ccccc2F)cn1)N1CCOCC1` [Compound No. 29, (3-Cyclopropyl-1-(5-(2-fluorophenyl)pyrimidin-2-yl)-1H-pyrazolo[4,3-c]pyridin-6-yl)(morpholino)methanone]: the melting point was in the range of 232 to 235 °C. For the same compound, at human PDE4B1 [1], the inhibition at 1 µM was determined as 73%.
On to `O=C(c1ccc2c(C3CC3)nn(-c3ncc(-c4ccccn4)cn3)c2c1)N1CCOCC1` [Compound No. 30, (3-Cyclopropyl-1-(5-(pyridin-2-yl)pyrimidin-2-yl)-1H-indazol-6-yl)(morpholino)methanone], for which the melting point was 260 to 263 °C. For the same compound, at human PDE4B1 [1], the inhibition at 1 µM was 96%.
The like results for `CC(C)(O)c1nn(-c2ncc(-c3ccccc3F)cn2)c2cc(C(=O)N3CCOCC3)ccc12` [Compound No. 31] were, in that order, 235 to 237 °C and 102%.
Turning to `CCOc1ccc(F)c(-c2cnc(-n3nc(C4CC4)c4ccc(C(=O)N(C)CC(N)=O)cc43)nc2)c1` [Compound No. 50, N-(2-Amino-2-oxoethyl)-3-cyclopropyl-1-(5-(5-ethoxy-2-fluorophenyl)pyrimidin-2-yl)-N-methyl-1H-indazole-6-carboxamide], the melting point lay in the range of 228 to 231 °C. The inhibition at 10 µM on human PDE4B1 [2] stood at 95%.
Take `CCOc1ccc(F)c(-c2cnc(-n3nc(C4CC4)c4ccc(C(=O)N5CCOCC5)cc43)nc2)c1` [Compound No. 51, (3-Cyclopropyl-1-(5-(5-ethoxy-2-fluorophenyl)pyrimidin-2-yl)-1H-indazol-6-yl)(morpholino)methanone]: the melting point was in the range of 155 to 158 °C. Moreover, the inhibition at 10 µM on human PDE4B1 [2] worked out at 103%.
On to `CC(O)c1ccc(F)c(-c2cnc(-n3nc(C4CC4)c4ccc(C(=O)N5CCOCC5)cc43)nc2)c1` (stereo not shown) [Compound No. 52, (3-Cyclopropyl-1-(5-(2-fluoro-5-(1-hydroxyethyl)phenyl)pyrimidin-2-yl)-1H-indazol-6-yl)(morpholino)methanone], for which the melting point was 256 to 260 °C. Moreover, the inhibition at 10 µM on human PDE4B1 [2] was 117%.
The like results for `CC(O)c1ccc(F)c(-c2cnc(-n3nc(C4CC4)c4ccc(C(=O)N(C)CC(N)=O)cc43)nc2)c1` (stereo not shown) [Compound No. 53, N-(2-Amino-2-oxoethyl)-3-cyclopropyl-1-(5-(2-fluoro-5-(1-hydroxyethyl)phenyl)pyrimidin-2-yl)-N-methyl-1H-indazole-6-carboxamide] were, in that order, 248 to 252 °C and 101%.
In the same order, the values of `CC(C)(O)c1ccc(F)c(-c2cnc(-n3nc(C4CC4)c4ccc(C(=O)N5CCOCC5)cc43)nc2)c1` [Compound No. 54, (3-Cyclopropyl-1-(5-(2-fluoro-5-(2-hydroxypropan-2-yl)phenyl)pyrimidin-2-yl)-1H-indazol-6-yl)(morpholino)methanone] are 211 to 215 °C and 107%.
The like results for `CN(CC(N)=O)C(=O)c1ccc2c(C3CC3)nn(-c3ncc(-c4cc(C(C)(C)O)ccc4F)cn3)c2c1` [Compound No. 55, N-(2-Amino-2-oxoethyl)-3-cyclopropyl-1-(5-(2-fluoro-5-(2-hydroxypropan-2-yl)phenyl)pyrimidin-2-yl)-N-methyl-1H-indazole-6-carboxamide] were, in that order, 177 to 180 °C and 115%.
Regarding `C[S+]([O-])c1ccc(F)c(-c2cnc(-n3nc(C4CC4)c4ccc(C(=O)N5CCOCC5)cc43)nc2)c1` (stereo not shown) [Compound No. 56, (3-Cyclopropyl-1-(5-(2-fluoro-5-(methylsulfinyl)phenyl)pyrimidin-2-yl)-1H-indazol-6-yl)(morpholino)methanone], the melting point is 243 to 247 °C. Besides, the inhibition at 10 µM at human PDE4B1 [2] turned out to be 106%.
In the same order, the values of `CN(CC(N)=O)C(=O)c1ccc2c(C3CC3)nn(-c3ncc(-c4cc([S+](C)[O-])ccc4F)cn3)c2c1` (stereo not shown) [Compound No. 57] are 274 to 277 °C and 120%.
Take `CS(=O)(=O)c1ccc(F)c(-c2cnc(-n3nc(C4CC4)c4ccc(C(=O)N5CCOCC5)cc43)nc2)c1` [Compound No. 58, (3-Cyclopropyl-1-(5-(2-fluoro-5-(methylsulfonyl)phenyl)pyrimidin-2-yl)-1H-indazol-6-yl)(morpholino)methanone]: the melting point is 276 to 280 °C. In addition, the inhibition at 10 µM at human PDE4B1 [2] was found to be 105%.
In the same order, the values of `CN(CC(N)=O)C(=O)c1ccc2c(C3CC3)nn(-c3ncc(-c4cc(S(C)(=O)=O)ccc4F)cn3)c2c1` [Compound No. 59, N-(2-Amino-2-oxoethyl)-3-cyclopropyl-1-(5-(2-fluoro-5-(methylsulfonyl)phenyl)pyrimidin-2-yl)-N-methyl-1H-indazole-6-carboxamide] are 311 to 315 °C and 96%.
In the same order, the values of `CCOc1ccc(F)c(-c2cnc(-n3nc(C)c4ccc(C(=O)N(C)CC(N)=O)cc43)nc2)c1` [Compound No. 60, N-(2-Amino-2-oxoethyl)-1-(5-(5-ethoxy-2-fluorophenyl)pyrimidin-2-yl)-N,3-dimethyl-1H-indazole-6-carboxamide] are 254 to 257 °C and 100%.
Consider `Cc1nn(-c2ncc(-c3cc(C(C)O)ccc3F)cn2)c2cc(C(=O)N(C)CC(N)=O)ccc12` (stereo not shown) [Compound No. 61, N-(2-Amino-2-oxoethyl)-1-(5-(2-fluoro-5-(1-hydroxyethyl)phenyl)pyrimidin-2-yl)-N,3-dimethyl-1H-indazole-6-carboxamide], for which the melting point was 191 to 195 °C. Moreover, on human PDE4B1 [2], the inhibition at 10 µM is 103%.
In the same order, the values of `Cc1nn(-c2ncc(-c3cc(C(C)(C)O)ccc3F)cn2)c2cc(C(=O)N(C)CC(N)=O)ccc12` [Compound No. 62, N-(2-Amino-2-oxoethyl)-1-(5-(2-fluoro-5-(2-hydroxypropan-2-yl)phenyl)pyrimidin-2-yl)-N,3-dimethyl-1H-indazole-6-carboxamide] are 187 to 190 °C and 108%.
In the case of `Cc1nn(-c2ncc(-c3cc(S(C)(=O)=O)ccc3F)cn2)c2cc(C(=O)N(C)CC(N)=O)ccc12` [Compound No. 63, N-(2-Amino-2-oxoethyl)-1-(5-(2-fluoro-5-(methylsulfonyl)phenyl)pyrimidin-2-yl)-N,3-dimethyl-1H-indazole-6-carboxamide], the melting point is 255 to 259 °C. Also, the inhibition at 10 µM on human PDE4B1 [2] was determined as 75%.
In the same order, the values of `Cc1nn(-c2ncc(-c3cc([S+](C)[O-])ccc3F)cn2)c2cc(C(=O)N(C)CC(N)=O)ccc12` (stereo not shown) [Compound No. 64, N-(2-Amino-2-oxoethyl)-1-(5-(2-fluoro-5-(methylsulfinyl)phenyl)pyrimidin-2-yl)-N,3-dimethyl-1H-indazole-6-carboxamide] are 164 to 168 °C and 42%.
